Results from US6329497A, “Sandramycin analogs” (The Scripps Research Institute, priority 1999, dated 2001).

Key:
[1] = biological target: HIV-1 reverse transcriptase (Human immunodeficiency virus type 1 group M subtype B, UniProt P04585); experiment: Inhibition of HIV-1 reverse transcriptase; assay type: biochemical
Method: The assay was performed according to an available procedure (Goldman, M. E.; Salituro, G. S.; Bowen, J. A.; Williamson, J. M.; Zink, D. L.; Schleif, W. A.; Emini, E. A. Mol. Pharmacol. 1990, 38, 20) with slight modification. A 45 L solution of reaction buffer containing 55 mM Tris·HCl, pH 8.2, 80 mM potassium chloride, 12 mM MgCl2, 1 mM DTT, 50 M EGTA, 2.5 g/mL rA·dT, 0.5 Ci of [^3 H]TTP, 10 M TTP, 1 mg/mL BSA, and 0.01% Triton X-100 was added to a well in a filter cluster plate (Millipore MAHV N45). The reverse transcription reaction was initiated upon addition of the reverse transcriptase (1 unit; 1 unit=10 pmol of [^3 H]TMP incorporated/60 min at 37° C.). The plate was incubated at 37° C. for 90 min. The plate was then placed on ice and 200 µL of 13% trichloroacetic acid and 10 mM sodium pyrophosphate was added to each well. The plate was chilled for 2 h and the liquid vacuumed out through the filter using a Millipore manifold (Millipore MAVM 09601). The precipitate was washed with 1 M and 10 mM sodium pyrophosphate twice. The filter was punched out and placed in a scintillation vial. 4 mL of cocktail was added. Radioactivity was determined by liquid scintillation counting.
The effects of sandramycin and its analogs on HIV-1 reverse transcriptase were determined by incubating the agents and the rA·dT containing buffer at 25° C. for 30 min prior to addition of the reverse transcriptase. Reactions containing no agents were used as controls, and those lacking the transcriptase were used as blanks.

L1210 cell line = experiment: In vitro cytotoxic activity, L1210; assay type: cell-based
[2] = system: calf thymus DNA and 5'-d(GCATGC)2; experiment: DNA binding affinity trends over calf thymus DNA and 5'-d(GCATGC)2 (fluorescence quenching)
Method: Apparent absolute DNA binding constants for 1-22 and related agents including luzopeptin A were obtained by measurement of the fluorescence quenching upon titration addition of calf thymus DNA or the deoxyoligonucleotides 5'-d(GCXXGC)2 where XX=AT, TA, GC, and CG. For each agent, the characteristic fluorescence excitation and emission spectra were recorded in 10 mM Tris-HCl, 75 mM NaCl (pH 7.4) buffer, FIG. 6. For the DNA binding assays which quantitate the fluorescence quenching, excitation outside the absorbance range of DNA was employed and the most intense fluorescence emission at a longer wavelength monitored. For assay of the DNA-induced fluorescence quenching of the agents, a 2 mL buffer solution of Tris-HCl (pH 7.4) and 75 mM NaCl was employed. For titration, small aliquots of DNA were added to solutions of the agents in Tris-HCl buffer (pH 7.4).
Despite these precautions, the fluorescence for a number of the analog solutions decreased for several of analogs (11, 14, 17, 21 and 22) and the quality of the binding constants for these should be viewed with caution. […] The titrations were carried out with 15 min time intervals between DNA additions to allow binding equilibration. […] The titration fluorescence quenching was analyzed by Scatchard analysis (Scatchard, G. Ann. N. Y. Acad. Sci. 1949, 51, 660) with the following equation: rb /c=Kb n-Kb rb where rb is the number of agent molecules bound per DNA base-pair, c is the free drug concentration, Kb is the apparent association constant, and n is the number of agent binding sites per base-pair.
A pronounced downward curvature in an infinite lattice such as calf thymus DNA is recognized to arise in part from neighbor exclusion where the binding of an agent excludes the subsequent binding at nearby sites. This exclusion manifests itself in the plot by a reduction in the apparent binding constant as the DNA lattice approaches saturation and the probability of finding a free site is diminished. In the calf thymus DNA studies, the binding also entails multiple classes of independent binding sites or modes. For simplicity, a linear fit of the high affinity binding sites was used to determine the binding constant attributable to bis-intercalation. For the deoxyoligonucleotides, the curvature can be more simply attributed to multiple classes of independent binding sites or binding modes. There are a number of mathematical methods to deconvolute the curved plot into such individual binding events. In the deoxyoligonucleotide studies, a non-linear fit described by Feldman was also used to deconvolute the curves. The model assumes one ligand with two binding types or sites. Since the number of binding sites is limited, we have interpreted this to indicate a high affinity bis-intercalation and a lower affinity binding potentially involving mono-intercalation. The formula was fit using the JMP^22 statistical fitting program using an initial approximation of the two n values and fitting for K1 and K2.
After 5 min of stirring, an initial fluorescence reading was taken with minimum exposure to the excitation beam. […] The excitation and emission wavelengths used for each analog varied and can be found in FIG. 6. The results of the titration were analyzed by Scatchard analysis. The linear portion of the Scatchard plot was used to determine the high affinity binding constants. In the case of the deoxyoligonucleotide study, a non-linear fit of the curve as described in the text was also used to determine the high affinity binding constant (Feldman, H. A. Anal. Biochem. 1972, 48, 317).

five cell lines = experiment: In vitro cytotoxic activity of key substructure analogs, five cell lines; assay type: cell-based; settings: five cell lines

## COc1cc2ccccc2nc1C(=O)N[C@@H]1COC(=O)[C@H](C(C)C)N(C)C(=O)CN(C)C(=O)CNC(=O)[C@@H]2CCCCN2C(=O)[C@H](NC(=O)c2nc3ccccc3cc2OC)COC(=O)[C@H](C(C)C)N(C)C(=O)CN(C)C(=O)CNC(=O)[C@@H]2CCCCN2C1=O [compound 3, (N-(3-Methoxy-quinolinyl-2-carbonyl)-D-ser-Pip-Gly-Sar-NMe-Val)2 (Serine Hydroxyl) Dilactone]
[1]
  HIV-1 reverse transcriptase inhibition, in words: roughly maintain the HIV-1 reverse transcriptase inhibitory potency of 1
  reduction in inhibitory potency on O-alkylation of the C3 phenol: approx. 10

## CC(C)C1C(=O)OCC(NC(=O)c2cc3ccccc3cc2OCc2ccccc2)C(=O)N2CCCCC2C(=O)NCC(=O)N(C)CC(=O)N(C)C(C(C)C)C(=O)OCC(NC(=O)c2cc3ccccc3cc2OCc2ccccc2)C(=O)N2CCCCC2C(=O)NCC(=O)N(C)CC(=O)N1C [compound 6, (N-(3-Benzyl-oxynaphthyl-2-carbonyl)-D-Ser-Pip-Gly-Sar-NMe-Val)2 (Serine Hydroxyl) Dilactone]
L1210 cell line
  cytotoxic potency, fold less potent than 2: > 5000
  cytotoxic potency, fold less potent than 5: > 500

## CC(C)[C@H]1C(=O)OC[C@@H](NC(=O)c2ccccn2)C(=O)N2CCCC[C@H]2C(=O)NCC(=O)N(C)CC(=O)N(C)[C@@H](C(C)C)C(=O)OC[C@@H](NC(=O)c2ccccn2)C(=O)N2CCCC[C@H]2C(=O)NCC(=O)N(C)CC(=O)N1C [compound 10, (N-(Pyridyl-2-carbonyl)-D-Ser-Pip-Gly-Sar-NMe-Val)2 (Serine Hydroxyl) Dilactone]
[1]
  HIV-1 reverse transcriptase inhibition, in words: much less effective
L1210 cell line
  cytotoxic potency, fold less potent than 4: 4×10^5
  cytotoxic potency, fold less potent than 8: 1000

## COc1ccc2nc(C(=O)NC3COC(=O)C(C(C)C)N(C)C(=O)CN(C)C(=O)CNC(=O)C4CCCCN4C(=O)C(NC(=O)c4nc5ccc(OC)cc5cc4O)COC(=O)C(C(C)C)N(C)C(=O)CN(C)C(=O)CNC(=O)C4CCCCN4C3=O)c(O)cc2c1 [compound 11, (N-(3-Hydroxy-6-Methoxy-quinolinyl-3-carbonyl)-D-Ser-Pip-Gly-Sar-NMe-Val)2 (Serine Hydroxyl) Dilactone]
[2]
  DNA binding affinity, in words: slightly less effective
L1210 cell line
  cytotoxic potency, fold less potent than 1: 2

## COc1ccc2nc(C(=O)NC3COC(=O)C(C(C)C)N(C)C(=O)CN(C)C(=O)CNC(=O)C4CCCCN4C(=O)C(NC(=O)c4nc5ccc(OC)cc5cc4OCc4ccccc4)COC(=O)C(C(C)C)N(C)C(=O)CN(C)C(=O)CNC(=O)C4CCCCN4C3=O)c(OCc3ccccc3)cc2c1 [compound 12, (N-(3-Benzyloxy-6-methoxy-quinolinyl-2-carbonyl)-D-Ser-Pip-Gly-Sar-NMe-Val)2 (Serine Hydroxyl) Dilactone]
L1210 cell line
  cytotoxic potency, fold less potent than 2: 0.8
  cytotoxic potency, fold less potent than 11: 400

## COc1ccc2nc(C(=O)N[C@@H]3COC(=O)[C@H](C(C)C)N(C)C(=O)CN(C)C(=O)CNC(=O)[C@@H]4CCCCN4C(=O)[C@H](NC(=O)c4ccc5cc(OC)ccc5n4)COC(=O)[C@H](C(C)C)N(C)C(=O)CN(C)C(=O)CNC(=O)[C@@H]4CCCCN4C3=O)ccc2c1 [compound 13, (N-(6-Methoxyquinolinyl-2-carbonyl)-D-Ser-Pip-Gly-Sar-NMe-Val)2 (Serine Hydroxyl) Dilactone]
[1]
  HIV-1 reverse transcriptase inhibition, in words: Comparable but slightly less potent inhibition
L1210 cell line
  cytotoxic potency, fold less potent than 4: 2
  cytotoxic potency, fold less potent than 11: 10

## Cc1ccc2nc(C(=O)N[C@@H]3COC(=O)[C@H](C(C)C)N(C)C(=O)CN(C)C(=O)CNC(=O)[C@@H]4CCCCN4C(=O)[C@H](NC(=O)c4nc5ccc(C)cc5cc4O)COC(=O)[C@H](C(C)C)N(C)C(=O)CN(C)C(=O)CNC(=O)[C@@H]4CCCCN4C3=O)c(O)cc2c1 [compound 14, (N-(-3-Hydroxy-6-methylquinolinyl-2-carbonyl)-D-Ser-Pip-Gly-Sar-NMe-Val). sub.2 (Serine Hydroxyl) Dilactone]
[1]
  HIV-1 reverse transcriptase inhibition, in words: Comparable but slightly less potent inhibition
[2]
  DNA binding affinity, in words: consistently slightly less effective
L1210 cell line
  cytotoxic potency, fold less potent than 1: 1

## CC(C)[C@H]1C(=O)OC[C@@H](NC(=O)c2nc3cc(Cl)ccc3cc2O)C(=O)N2CCCC[C@H]2C(=O)NCC(=O)N(C)CC(=O)N(C)[C@@H](C(C)C)C(=O)OC[C@@H](NC(=O)c2nc3cc(Cl)ccc3cc2O)C(=O)N2CCCC[C@H]2C(=O)NCC(=O)N(C)CC(=O)N1C [compound 16, (N-(7-Chloro-3-hydroxyquinolinyl-2-carbonyl)-D-Ser-Pip-Gly-Sar-NMe-Val). sub.2 (Serine Hydroxyl) Dilactone]
[1]
  HIV-1 reverse transcriptase inhibition, in words: Comparable but slightly less potent inhibition
[2]
  DNA binding affinity, in words: nearly indistinguishable from 1
L1210 cell line
  cytotoxic potency, fold less potent than 1: 0.5

## CC(C)C1C(=O)OCC(NC(=O)c2nc3ccccc3nc2OCc2ccccc2)C(=O)N2CCCCC2C(=O)NCC(=O)N(C)CC(=O)N(C)C(C(C)C)C(=O)OCC(NC(=O)c2nc3ccccc3nc2OCc2ccccc2)C(=O)N2CCCCC2C(=O)NCC(=O)N(C)CC(=O)N1C [compound 20, (N-(3-Benzyl-oxyquinoxalyl-2-carbonyl)-D-Ser-Pip-Gly-Sar-NMe-Val)2 (Serine Hydroxyl) Dilactone]
L1210 cell line
  cytotoxic potency, fold less potent than 19: 7

## CC(C)[C@H]1C(=O)OC[C@@H](NS(=O)(=O)CC[Si](C)(C)C)C(=O)N2CCCC[C@H]2C(=O)NCC(=O)N(C)CC(=O)N(C)[C@@H](C(C)C)C(=O)OC[C@@H](NC(=O)c2nc3ccccc3cc2O)C(=O)N2CCCC[C@H]2C(=O)NCC(=O)N(C)CC(=O)N1C [compound 24, N^1 -SES,N^6 -(3-hydroxylquinoline-2-carbonyl) (D-Ser-Pip-Gly-Sar-NMe-Val)2 (Serine Hydroxyl) Dilactone]
Five cell lines
  fold less potent than 1: 5000-10000

## (N-(3-Benzyl-oxypyridyl-2-carbonyl)-D-Ser-Pip-Gly-Sar-NMe-Val)2 (Serine Hydroxyl) Dilactons [compound 9]
L1210 cell line
  cytotoxic potency, fold less potent than 2: 4000
  cytotoxic potency, fold less potent than 8: 1000

## (N-(3-Benzyloxy-7-chloroquinolinyl-2-carbonyl)-D-Ser-Pip-Gly-Sar-NMe-Val)2 (Serine Hydroxyl) Dilactone [compound 17]
[1]
  reduction in inhibitory potency on O-alkylation of the C3 phenol: > 500
[2]; O-benzylation of chromophore phenol
  reduction of the binding affinity versus 16: 2.4 to 2.7 kcal/mol

## Sandramycin Bis-O-benzyl Ether [compound 2]
Five cell lines
  fold less potent than 1: 20-1000
L1210 cell line
  cytotoxic potency, fold less potent than 1: 1000
